Measured values from ChEMBL document CHEMBL1201862, “PubChem BioAssay data set” (2004).
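1) Cells in 96-well plates. 2) Compound, 48 h, 5 concentrations. 3) Linear interpolation between surrounding doses. 4) Unreached endpoint = highest concentration. Abbreviation: GI50, concentration required for 50% inhibition of growth.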 The source made the active and inactive calls. No stated cut-off is given here; in the data, active = GI50 up to about 1.1 µM and inactive = higher.

Legend:
Assay in all cases: NCI anticancer screen, dose series, 48 h
UACC-62 = tested on: UACC-62
M19-MEL = tested on: M19-MEL
SW-620 = tested on: SW-620
SN12C = tested on: SN12C
K562 = tested on: K562
NCI-H23 = tested on: NCI-H23
SK-MEL-2 = tested on: SK-MEL-2
MCF7 = tested on: MCF7
NCI-H226 = tested on: NCI-H226
SF-268 = tested on: SF-268
SF-295 = tested on: SF-295
CAKI-1 = tested on: CAKI-1
RPMI-8226 = tested on: RPMI-8226
DLD-1 = tested on: DLD-1
OVCAR-4 = tested on: OVCAR-4
SK-MEL-5 = tested on: SK-MEL-5
SF-539 = tested on: SF-539

Measured: GI50

Cc1nc2ccccc2c(=O)n1CC(=O)O
inactive: UACC-62 > 100 µM | M19-MEL > 100 µM | SW-620 > 100 µM | SN12C > 100 µM | K562 > 100 µM | NCI-H23 > 100 µM | SK-MEL-2 > 100 µM | MCF7 > 100 µM | NCI-H226 > 100 µM | SF-268 > 100 µM | SF-295 > 100 µM | CAKI-1 > 100 µM | RPMI-8226 > 100 µM | DLD-1 > 100 µM | OVCAR-4 > 100 µM | SK-MEL-5 > 100 µM | SF-539 > 100 µM
